Consider one compound from article PMC2891058 (Biochemistry, 2010).

Experiment [1] concerns the target S. typhimurium QAPRTase (quinolinate phosphoribosyltransferase) (Salmonella enterica, UniProt P30012). As to the kind of experiment: stopped-flow tryptophan fluorescence. It counts as binding.
The target in experiment [2] is S. typhimurium QAPRTase (quinolinate phosphoribosyltransferase) (Salmonella enterica, UniProt P30012, D236A). As to the kind of experiment: biochemical.
Experiment [3] deals with S. typhimurium QAPRTase (quinolinate phosphoribosyltransferase) (Salmonella enterica, UniProt P30012, E215D). In words: biochemical.
The target of experiment [4] is S. typhimurium QAPRTase (quinolinate phosphoribosyltransferase) (Salmonella enterica, UniProt P30012, E215A). In words: biochemical.
For experiment [5], the target named is S. typhimurium QAPRTase (quinolinate phosphoribosyltransferase) (Salmonella enterica, UniProt P30012, K285A). In words: biochemical.
In experiment [6] the target is S. typhimurium QAPRTase (quinolinate phosphoribosyltransferase) (Salmonella enterica, UniProt P30012, E215Q). In words: biochemical.
For experiment [7], the target named is S. typhimurium QAPRTase (quinolinate phosphoribosyltransferase) (Salmonella enterica, UniProt P30012, K154A). As to the kind of experiment: biochemical.

For the compound `O=P(O)(O)OC[C@H]1O[C@H](OP(=O)(O)OP(=O)(O)O)[C@H](O)[C@@H]1O` [PRPP], the Kd (in general, the equilibrium constant for the complex coming apart) in experiment [1] is 53 µM; in experiment [2], 127 ± 25 µM; in experiment [3], 417 ± 76 µM; in experiment [4], 770 ± 200 µM; in experiment [5], roughly 1000 µM; in experiment [6], 113 ± 24 µM. Moreover, the Kd in experiment [7] is greater than 1000 µM.
